Key:
Assay type in all cases: functional
[1] = system: P388; test: In vivo antitumor activity against mouse P388 cells at 9 mg/kg relative to control
[2] = system: P388; test: In vivo antitumor activity against mouse P388 cells at 4 mg/kg relative to control
[3] = system: P388; test: In vivo antitumor activity against mouse P388 cells at 0.5 mg/kg relative to control
[4] = system: P388; test: In vivo antitumor activity against mouse P388 cells at 2 mg/kg relative to control

`CC(=O)O[C@H]1C(=O)O[C@@H]2C[C@H]3C(C)=CC(=O)[C@@H](O)[C@]3(C)[C@H]3[C@]4(O)OC[C@]32[C@@H]1[C@@H](C)[C@H]4O` [HOLACANTHONE] was tested, and the T/C [1] was 159%.

Work on `CC1=CC(=O)[C@@H](O)[C@]2(C)[C@H]3[C@]4(O)OC[C@]35[C@H]([C@@H](C)[C@H]4O)[C@@H](OC(=O)CC(C)(C)O)C(=O)O[C@@H]5C[C@@H]12` [SOULARUBINONE] yielded a T/C [2] of 137%.

In the case of `CC[C@](C)(O)C(=O)O[C@H]1C(=O)O[C@@H]2C[C@H]3C(C)=CC(=O)[C@@H](O)[C@]3(C)[C@H]3[C@@]4(O)OC[C@]32[C@@H]1[C@@H](C)[C@H]4O` [GLAUCARUBINONE], the T/C [3] is reported as 231%.

In the case of `CCC(C)C(=O)O[C@H]1C(=O)O[C@@H]2C[C@H]3C(C)=CC(=O)[C@@H](O)[C@]3(C)[C@H]3[C@]4(O)OC[C@]32[C@@H]1[C@@H](C)[C@H]4O` (some centres undefined) [AILANTHINONE], the T/C [4] is reported as 148%.
